In patent US20210015884A1 (priority 2018, published 2021):

System: m^6A levels in viral RNA
Format: cell-based

Row | SMILES | total m^6A levels in viral RNA
1 | Nc1nccc2c1ncn2[C@@H]1O[C@H](CO)[C@@H](O)[C@H]1O [3DZA, 3-Deazaadenosine] | reduction of m^6A
2 | Cc1ccc(Cl)c(Nc2ccccc2C(=O)O)c1Cl [MA, meclofenamic acid] | increase of m^6A
